Source: US11518981B2, “Methods of enhancing engraftment activity of hematopoietic stem cells” (CHILDREN'S HOSPITAL MEDICAL CENTER, priority 2017, dated 2022)

Experiments:
[1] = test system: CD34^+38^−90^+ HSCs; test: cell cycle analysis (Ki-67 / Hoechst) of HSCs; format: cell-based, human; conditions: 72 h, RV transduced cycling HSCs; MK-8776 1 μM, PV1019 1 μM, PGE2 10 μM, Birb 796 600 nM
[2] = test system: γH2AX; test: DNA damage response (γH2AX, 53BP1) by immunofluorescence and flow cytometry; format: cell-based, human; conditions: 72 h, RV transduced cycling HSCs
Procedure: For EdU incorporation assay, cells were incubated with 10 μM EdU throughout the culture period and the CLICK-IT® Plus EdU Pacific Blue Flow Cytometry Assay Kit (ThermoFisher Scientific C10636) was used for staining. […] Samples were run through a FACSCANTOTM, FORTESSATM, or LSR 2 flow cytometers (BD Biosciences), and the data was analyzed by […] software (BD). […] II cell sorter. FACS sorted CD34+38-90+ cells were fixed in 2% paraformaldehyde and permeabilized using 0.1% […] polyether alcohol, Sigma-Aldrich). […] Cells were counterstained and mounted with […]® antifade mounting medium with DAPI (H-1200 Vector Laboratories). Images were obtained using a Nikon 90i upright microscope.

[3] = test system: human MPB derived CD34^+ cells; test: multi-lineage reconstitution (myeloid / B-lymphoid) in bone marrow of NSG mice; format: in vivo; conditions: limiting dilution transplant, 42 h LV; 6 mo post 1 T
Description: NOD.Cg-Prkdcscid Il2rgtm1Wjl/SzJ (NSG) mice were purchased from The Jackson Laboratory (Bar Harbor, Me.). All animals were bred and maintained in a specific pathogen-free environment and all experiments were approved by the Institutional Animal Care and Use (IACUC) Committee. Male and female NSG mice aged 8 to 14 weeks old were fed doxycycline chow (TestDiet; Modified Prolab RMH-1500 with 0.0625% doxycycline) a week prior to, during and for 2 weeks post irradiation. Human engraftment was analyzed in bone marrow (BM), via BM aspirates performed at 6 and 12 weeks from left and right femurs. After sacrifice at 24 weeks, marrow from all of the primary mice (1 T) was harvested. Peripheral blood analysis was also performed in some experiments. Secondary transplants (2 T) were performed after mouse CD45^+ cells were depleted from BM harvested from each 1 T mouse separately, using Biotin Rat Anti-Mouse CD45 (BD Biosciences 553078) and Streptavidin Particles Plus-DM (BD Biosciences 557812) and injected into one irradiated (280 cGy) secondary NSG mouse. For calculating competitive repopulating units (CRU) from limiting dilution transplantation, the L-CALC^TM software (Stem Cell Technologies) was used. All of the mice used for this study were randomly assigned to a treatment group. No animals were excluded from the analysis. PE-Cyanine 7 or APC-EFLUOR® 780, APC- or PE-conjugated antibodies directed to human CD34 (BD Biosciences 560710 or 555824), CD38 (eBiosciences, San Diego, Calif. 47-0389-42), CD90 (BioLegend 328120), CD45RA (eBiosciences 17-0458-42), CD49f (BD Biosciences 555736), CD45 (BD 55485 or Biolegend 304026), CD33 (eBiosciences 25-0338-42), CD19 (BD Biosciences 557791), or CD3 (BD Biosciences 555340). Cells ( 5×10^5-1×10^6) were used to label with antibodies as per manufacturer instructions with the appropriate isotype controls. For phospho-flow, primary antibodies phospho-[…]), phospho-p44/42 MAPK (ERK 1⁄2) […]; […]), and phospho-JNK […] PE conjugate; […]) (all from Cell Signaling) were used for staining overnight followed by wash and secondary antibody stain including Goat anti-Rabbit IgG (H+L) or Goat anti-Rabbit IgG (H+L) or Pacific Blue (P-10994) antibody. Apoptosis assay was performed using PE Annexin V Apoptosis Detection Kit (BD Biosciences 559763) according to the manufacturer's instructions. Total ROS and mitochondrial specific ROS were detected using 10 μM CM-H2DCFDA (ThermoFisher Scientific C6827) and 5 μM MITOSOXTM Red (Red Mitochondrial Superoxide Indicator) (ThermoFisher Scientific M36008) respectively, following manufacturer's instructions.

[4] = test system: human CD34^+ cells; test: GFP marking in human grafts of NSG mice; format: in vivo; conditions: limiting dilution transplant; also long-termed secondary human grafts
Description: NOD.Cg-Prkdcscid Il2rgtm1Wjl/SzJ (NSG) mice were purchased from The Jackson Laboratory (Bar Harbor, Me.). All animals were bred and maintained in a specific pathogen-free environment and all experiments were approved by the Institutional Animal Care and Use (IACUC) Committee. Male and female NSG mice aged 8 to 14 weeks old were fed doxycycline chow (TestDiet; Modified Prolab RMH-1500 with 0.0625% doxycycline) a week prior to, during and for 2 weeks post irradiation. Human engraftment was analyzed in bone marrow (BM), via BM aspirates performed at 6 and 12 weeks from left and right femurs. After sacrifice at 24 weeks, marrow from all of the primary mice (1 T) was harvested. Peripheral blood analysis was also performed in some experiments. Secondary transplants (2 T) were performed after mouse CD45^+ cells were depleted from BM harvested from each 1 T mouse separately, using Biotin Rat Anti-Mouse CD45 (BD Biosciences 553078) and Streptavidin Particles Plus-DM (BD Biosciences 557812) and injected into one irradiated (280 cGy) secondary NSG mouse. […] Total ROS and mitochondrial specific ROS were detected using 10 μM CM-H2DCFDA (ThermoFisher Scientific C6827) and 5 μM MITOSOXTM Red (Red Mitochondrial Superoxide Indicator) (ThermoFisher Scientific M36008) respectively, following manufacturer's instructions.

[5] = test system: HIF-1α; test: HIF-1α staining in HSCs (immunofluorescence, flow cytometry); format: cell-based, human; conditions: 72 h, RV transduced CD34^+38^−90^+ cells
Description: FACS sorted CD34+38−90+ cells were fixed in 2% paraformaldehyde and permeabilized using 0.1% TRITON™ X-100 (Alkaryl polyether alcohol, Sigma-Aldrich). Cells were then stained with primary antibodies Anti-phospho-H2AX (Ser 139) (Millipore, 05-636), anti-53BP1 antibody (Novus Biologicals, NB100-904), or anti-HIF-1α (ab103063). For secondary antibodies, Alexa Fluor 594 conjugated Goat anti-Rabbit IgG (H+L) (A-11037) or, ALEXA FLUOR® 647 conjugated Goat anti-Rabbit IgG (H+L) (A-21245) (both from ThermoFisher Scientific) were used for 1 hour at 37° C. Cells were counterstained and mounted with […]® antifade mounting medium with DAPI (H-1200 Vector Laboratories). Images were obtained using a Nikon 90i upright microscope.

| Compound | transduced HSCs accumulated in the G2M phase [1] | γH2AX levels in the transduced HSCs [2] | lineage skewing [3] | GFP marking [4] | HIF-1α levels in cycling transduced HSCs [5] |
| --- | --- | --- | --- | --- | --- |
| CCCCC(C)(C)[C@H](O)/C=C/[C@H]1[C@H](O)CC(=O)[C@@H]1C/C=C\CCCC(=O)O [PGE2, 16,16 dimethyl Prostaglandin E2] | tended to reduce | no effect | sufficient to restore the lineage skewing | did not have any effect | could be stabilized |
| Cn1cc(-c2cnn3c(N)c(Br)c([C@@H]4CCCNC4)nc23)cn1 [Chk1i] | Fewer transduced-HSCs were found to accumulate in the G2M phase with Chk1i (albeit not statistically significant) | – | – | – | – |
